Where two headings read alike, the source gives them in different places.

The text below walks through data of patent US12091411B2, “IRAK degraders and uses thereof” (Kymera Therapeutics, Inc., priority 2022, dated 2024).

The assay concerns the target T1, IRAK4 (Homo sapiens, UniProt Q9NWZ3).
T1 construct: Degradation of IRAK4 in OCI-LY10 was quantitatively measured using Meso Scale Discovery technology; endogenous in cells; host or cells: OCI-LY10
T1 sequence (Q9NWZ3 1-460): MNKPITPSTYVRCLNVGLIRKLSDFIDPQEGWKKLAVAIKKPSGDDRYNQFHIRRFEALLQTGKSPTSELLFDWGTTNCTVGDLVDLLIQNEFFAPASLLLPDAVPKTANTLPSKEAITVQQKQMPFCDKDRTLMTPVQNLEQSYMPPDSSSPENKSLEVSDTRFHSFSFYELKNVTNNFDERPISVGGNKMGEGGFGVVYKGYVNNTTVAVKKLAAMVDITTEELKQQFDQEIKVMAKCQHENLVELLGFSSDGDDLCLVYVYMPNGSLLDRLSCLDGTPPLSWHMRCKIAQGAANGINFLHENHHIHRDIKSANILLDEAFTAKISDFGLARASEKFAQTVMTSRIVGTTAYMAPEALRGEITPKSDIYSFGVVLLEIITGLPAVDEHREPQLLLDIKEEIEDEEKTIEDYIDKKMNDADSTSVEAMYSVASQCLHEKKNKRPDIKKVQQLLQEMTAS
As to the kind of experiment: IRAK4 MSD Degradation in OCI-LY10. In kind it is cell-based. The settings on record: OCI-LY10 cells, MSD. In a few lines:
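OCI-LY10 cells exposed to 8-point 1:3 compound series (top 1 to 10 μM) for 4 to 24 h at 37 °C, 5% CO2. Lysate IRAK4 quantified by MSD sandwich immunoassay. DC50 from three-parameter logistic fit, binned A (<0.01 μM) to D (>0.2 μM or not tested).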

The mark [1] stands for this setting: 4 hrs incubation, read-out: IRAK4 degradation in OCI-LY10 at 4 hrs: DC50.
Where [2] appears, read: 24 hrs incubation, read-out: IRAK4 degradation in OCI-LY10 at 24 hrs: DC50.

Turning to `Cn1c(=O)n(C2CCC(=O)NC2=O)c2ccc(C3CCN(C[C@H]4CC[C@H](n5cc6cc(NC(=O)c7cccc(C(F)(F)F)n7)ccc6n5)CC4)CC3(F)F)cc21` (stereo partly shown) [I-465], the DC50 by setting is: under setting [1], over 200 nM; under setting [2], over 200 nM.

Turning to `COc1cc2nn([C@H]3CC[C@H](CN4CC=C(c5cccc6c(N7CCC(=O)NC7=O)cncc56)C(F)(F)C4)CC3)cc2cc1NC(=O)c1cccc(C(F)(F)F)n1` [I-466], the DC50 reads like this: under setting [1], over 200 nM; under setting [2], over 200 nM.

Regarding `COc1cc2nn([C@H]3CC[C@H](CN4CCC(c5cccc6c(N7CCC(=O)NC7=O)cncc56)C(F)(F)C4)CC3)cc2cc1NC(=O)c1cccc(C(F)(F)F)n1` (stereo partly shown) [I-467], the DC50 under setting [1] was over 200 nM and the DC50 under setting [2] was over 200 nM.

Consider `O=C1CCN(c2cncc3c(C4=CCN(C[C@H]5CC[C@H](n6cc7cc(NC(=O)c8cccc(C(F)(F)F)n8)ccc7n6)CC5)CC4(F)F)cccc23)C(=O)N1` [I-468], for which the DC50 was over 200 nM under setting [1] and over 200 nM under setting [2].

Take `O=C1CCN(c2cncc3c(C4CCN(C[C@H]5CC[C@H](n6cc7cc(NC(=O)c8cccc(C(F)(F)F)n8)ccc7n6)CC5)CC4(F)F)cccc23)C(=O)N1` (stereo partly shown) [I-469]: the DC50 reads like this: under setting [1], over 200 nM; under setting [2], over 200 nM.

As for `COc1cc2nn([C@H]3CC[C@H](CN4CC=C(c5ccc6c(N7CCC(=O)NC7=O)cncc6c5)C(F)(F)C4)CC3)cc2cc1NC(=O)c1cccc(C(F)(F)F)n1` [I-470], the half-maximal degradation concentration (DC50) was over 200 nM under setting [1] and over 200 nM under setting [2].

Regarding `COc1cc2nn([C@H]3CC[C@H](CN4CCC(c5ccc6c(N7CCC(=O)NC7=O)cncc6c5)C(F)(F)C4)CC3)cc2cc1NC(=O)c1cccc(C(F)(F)F)n1` (stereo partly shown) [I-471], the DC50 reads like this: under setting [1], over 200 nM; under setting [2], over 200 nM.

On to `O=C1CCN(c2cncc3cc(C4=CCN(C[C@H]5CC[C@H](n6cc7cc(NC(=O)c8cccc(C(F)(F)F)n8)ccc7n6)CC5)CC4(F)F)ccc23)C(=O)N1` [I-472], for which the DC50 by setting is: under setting [1], over 200 nM; under setting [2], over 200 nM.

Turning to `O=C1CCN(c2cncc3cc(C4CCN(C[C@H]5CC[C@H](n6cc7cc(NC(=O)c8cccc(C(F)(F)F)n8)ccc7n6)CC5)CC4(F)F)ccc23)C(=O)N1` (stereo partly shown) [I-473], the DC50 was over 200 nM under setting [1] and over 200 nM under setting [2].

Take `CN(C[C@H]1CC[C@H](n2cc3cc(NC(=O)c4cccc(C(F)(F)F)n4)ccc3n2)CC1)C1CCN(c2cccc3c2n(C)c(=O)n3C2CCC(=O)NC2=O)CC1(F)F` (stereo partly shown) [I-474]: the DC50 under setting [1] is over 200 nM and the DC50 under setting [2] was over 200 nM.

In the case of `COc1cc2nn([C@H]3CC[C@H](CN(C)C4CCN(c5cccc6c5n(C)c(=O)n6C5CCC(=O)NC5=O)CC4(F)F)CC3)cc2cc1NC(=O)c1cccc(C(F)(F)F)n1` (stereo partly shown) [I-475], the DC50 was over 200 nM under setting [1] and over 200 nM under setting [2].

Consider `CN(C[C@H]1CC[C@H](n2cc3cc(NC(=O)c4cccc(C(F)(F)F)n4)c(C(F)F)cc3n2)CC1)C1CCN(c2cccc3c2n(C)c(=O)n3C2CCC(=O)NC2=O)CC1(F)F` (stereo partly shown) [I-476], for which the DC50 is over 200 nM under setting [1] and over 200 nM under setting [2].

Turning to `CN(C[C@H]1CC[C@H](n2cc3cc(NC(=O)c4cccc(C(F)(F)F)n4)c(C#N)cc3n2)CC1)C1CCN(c2cccc3c2n(C)c(=O)n3C2CCC(=O)NC2=O)CC1(F)F` (stereo partly shown) [I-477], the DC50 was over 200 nM under setting [1] and over 200 nM under setting [2].

As for `CN(C[C@H]1CC[C@H](n2cc3cc(NC(=O)c4cccc(C(F)(F)F)n4)c([S+](C)[O-])cc3n2)CC1)C1CCN(c2cccc3c2n(C)c(=O)n3C2CCC(=O)NC2=O)CC1(F)F` (stereo partly shown) [I-478], the DC50 is, setting by setting: under setting [1], over 200 nM; under setting [2], over 200 nM.

On to `CN(C[C@H]1CC[C@H](n2cc3cc(NC(=O)c4cccc(C(F)(F)F)n4)c(S(C)(=O)=O)cc3n2)CC1)C1CCN(c2cccc3c2n(C)c(=O)n3C2CCC(=O)NC2=O)CC1(F)F` (stereo partly shown) [I-479], for which the DC50 is over 200 nM under setting [1] and over 200 nM under setting [2].

Regarding `CN(C[C@H]1CC[C@H](n2cc3cc(NC(=O)c4cccc(C(F)(F)F)n4)c(S(C)(=N)=O)cc3n2)CC1)C1CCN(c2cccc3c2n(C)c(=O)n3C2CCC(=O)NC2=O)CC1(F)F` (stereo partly shown) [I-480], the DC50 under setting [1] is over 200 nM and the DC50 under setting [2] is over 200 nM.

Turning to `CN(C[C@H]1CC[C@H](n2cc(NC(=O)c3cnn4cccnc34)c(C(F)F)n2)CC1)C1CCN(c2ccc3c(c2)n(C)c(=O)n3C2CCC(=O)NC2=O)CC1(F)F` (stereo partly shown) [I-481], the DC50 under setting [1] is over 200 nM and the DC50 under setting [2] is over 200 nM.

With `CN(C[C@H]1CC[C@H](n2cc(NC(=O)c3cnn4cccnc34)c(C(F)F)n2)CC1)C1CCN(c2cccc3c2n(C)c(=O)n3C2CCC(=O)NC2=O)CC1F` (stereo partly shown) [I-482], the DC50 is over 200 nM under setting [1] and over 200 nM under setting [2].

In the case of `CN(C[C@H]1CC[C@H](n2cc(NC(=O)c3cnn4cccnc34)c(C(F)F)n2)CC1)C1C(F)CN(c2cccc3c2n(C)c(=O)n3C2CCC(=O)NC2=O)CC1F` (stereo partly shown) [I-483], the DC50 is over 200 nM under setting [1] and over 200 nM under setting [2].

Take `CN(C)c1ccn2ncc(C(=O)Nc3cn([C@H]4CC[C@H](CN(C)C5CCN(c6cccc7c6n(C)c(=O)n7C6CCC(=O)NC6=O)CC5(F)F)CC4)nc3C(F)F)c2n1` (stereo partly shown) [I-484]: the DC50 is over 200 nM under setting [1] and 10 to 100 nM under setting [2].

As to `CN(C[C@H]1CC[C@H](n2cc(NC(=O)c3cnn4cccnc34)c(C(F)F)n2)CC1)C1CCN(c2cccc3c2n(C)c(=O)n3C2CCC(=O)NC2=O)CC1O` (stereo partly shown) [I-486], the DC50 is over 200 nM under setting [1] and over 200 nM under setting [2].

As to `CN(C[C@]1(O)CC[C@@H](n2cc(NC(=O)c3cnn4cccnc34)c(C(F)F)n2)CC1)C1CCN(c2cccc3c2n(C)c(=O)n3C2CCC(=O)NC2=O)CC1` (stereo partly shown) [I-487], the DC50 under setting [1] is over 200 nM and the DC50 under setting [2] was over 200 nM.

As to `Cn1c(=O)n(C2CCC(=O)NC2=O)c2cccc(C3CCN(C[C@H]4CC[C@H](n5cc6cc(NC(=O)c7cccc(C(F)(F)F)n7)ncc6n5)CC4)CC3(F)F)c21` (stereo partly shown) [I-488], the DC50 by setting is: under setting [1], over 200 nM; under setting [2], over 200 nM.

`Cn1c(=O)n(C2CCC(=O)NC2=O)c2cccc(C3CCN(C[C@H]4CC[C@H](n5cc6cc(NC(=O)c7cccc(C(F)(F)F)n7)ccc6n5)CC4)CC3(F)F)c21` (stereo partly shown) [I-489]: the DC50 was over 200 nM under setting [1] and over 200 nM under setting [2].

Turning to `Cn1c(=O)n(C2CCC(=O)NC2=O)c2cccc(C3CCN(C[C@H]4CC[C@H](n5cc6cc(NC(=O)c7cccc(C(F)(F)F)n7)c(C#N)cc6n5)CC4)CC3(F)F)c21` (stereo partly shown) [I-490], the DC50 is over 200 nM under setting [1] and over 200 nM under setting [2].

Regarding `CO[C@@H]1CN(c2cccc3c2n(C)c(=O)n3C2CCC(=O)NC2=O)C[C@@H]1N(C)C[C@H]1CC[C@H](n2cc3cc(NC(=O)c4cccc(C(F)(F)F)n4)ccc3n2)CC1` (stereo partly shown) [I-491], the DC50 is, setting by setting: under setting [1], over 200 nM; under setting [2], over 200 nM.

In the case of `CO[C@H]1CN(c2cccc3c2n(C)c(=O)n3C2CCC(=O)NC2=O)C[C@@H]1N(C)C[C@H]1CC[C@H](n2cc3cc(NC(=O)c4cccc(C(F)(F)F)n4)ccc3n2)CC1` (stereo partly shown) [I-492], the DC50 is over 200 nM under setting [1] and over 200 nM under setting [2].

As to `CO[C@H]1CN(c2cccc3c2n(C)c(=O)n3C2CCC(=O)NC2=O)C[C@H]1N(C)C[C@H]1CC[C@H](n2cc3cc(NC(=O)c4cccc(C(F)(F)F)n4)ccc3n2)CC1` (stereo partly shown) [I-493], the DC50 reads like this: under setting [1], over 200 nM; under setting [2], over 200 nM.

Turning to `CO[C@@H]1CN(c2cccc3c2n(C)c(=O)n3C2CCC(=O)NC2=O)C[C@H]1N(C)C[C@H]1CC[C@H](n2cc3cc(NC(=O)c4cccc(C(F)(F)F)n4)ccc3n2)CC1` (stereo partly shown) [I-494], the DC50 was over 200 nM under setting [1] and over 200 nM under setting [2].

`CO[C@@H]1CN(c2cccc3c2n(C)c(=O)n3C2CCC(=O)NC2=O)CC[C@H]1N(C)C[C@H]1CC[C@H](n2cc3cc(NC(=O)c4cccc(C(F)(F)F)n4)ccc3n2)CC1` (stereo partly shown) [I-495]: the DC50 by setting is: under setting [1], over 200 nM; under setting [2], over 200 nM.

For `CO[C@H]1CN(c2cccc3c2n(C)c(=O)n3C2CCC(=O)NC2=O)CC[C@@H]1N(C)C[C@H]1CC[C@H](n2cc3cc(NC(=O)c4cccc(C(F)(F)F)n4)ccc3n2)CC1` (stereo partly shown) [I-496], the DC50 under setting [1] was over 200 nM and the DC50 under setting [2] was over 200 nM.

For the compound `CO[C@@H]1CN(c2cccc3c2n(C)c(=O)n3C2CCC(=O)NC2=O)CC[C@@H]1N(C)C[C@H]1CC[C@H](n2cc3cc(NC(=O)c4cccc(C(F)(F)F)n4)ccc3n2)CC1` (stereo partly shown) [I-497], the DC50 by setting is: under setting [1], over 200 nM; under setting [2], over 200 nM.

As for `CO[C@H]1CN(c2cccc3c2n(C)c(=O)n3C2CCC(=O)NC2=O)CC[C@H]1N(C)C[C@H]1CC[C@H](n2cc3cc(NC(=O)c4cccc(C(F)(F)F)n4)ccc3n2)CC1` (stereo partly shown) [I-498], the DC50 runs as follows: under setting [1], over 200 nM; under setting [2], over 200 nM.

In the case of `Cn1c(=O)n(C2CCC(=O)NC2=O)c2cccc(N3CC(F)(F)C34CN(C[C@H]3CC[C@H](n5cc6cc(NC(=O)c7cccc(C(F)(F)F)n7)ccc6n5)CC3)C4)c21` (stereo partly shown) [I-499], the DC50 reads like this: under setting [1], over 200 nM; under setting [2], over 200 nM.

Turning to `Cn1c(=O)n(C2CCC(=O)NC2=O)c2cccc(N3CC4(C3)N(C[C@H]3CC[C@H](n5cc6cc(NC(=O)c7cccc(C(F)(F)F)n7)ccc6n5)CC3)CC4(F)F)c21` (stereo partly shown) [I-500], the DC50 is, setting by setting: under setting [1], over 200 nM; under setting [2], over 200 nM.
